Experimental data: patent EP4806900A2, “RAS INHIBITORS” (Revolution Medicines, Inc., priority 2019, dated 2021)
Read-outs that look alike come from different tables or passages of the source.

Test system: NCI-H358 (K-Ras G12C)
Experiment: CellTiter-Glo cell viability assay, NCI-H358
Type: cell-based, human
Description: Note - The following protocol describes a procedure for monitoring cell viability of K-Ras mutant cancer cell lines in response to a compound of the invention. Other RAS isoforms may be employed, though the number of cells to be seeded will vary based on cell line used.
Test compounds (132.5 nL) were directly dispensed into the assay plates containing cells. […] On day 5, assay plates and their contents were equilibrated to room temperature for approximately 30 minutes. […] Luminescence was measured using the PerkinElmer Enspire. Data were normalized by the following: (Sample signal/Avg. DMSO)*100. The data were fit using a four-parameter logistic fit.

[1] = Homo sapiens, NCI-H358, read-out: H358 Cell Viability assay data (K-Ras G12C, IC50, uM), Table 5
[2] = Homo sapiens, NCI-H358, Table 5, read-out: H358 Cell Viability assay data (K-Ras G12C, IC50)
[3] = read-out: H358 Cell Viability assay data (K-Ras G12C, IC50), Table 5
[4] = Table 5, read-out: H358 Cell Viability assay data (K-Ras G12C, IC50)

IC50 [2] [µM] | SMILES | IC50 [1] [µM] | further results
< 0.01 | CO[C@@H](C)c1ncccc1-c1c2c3cc(ccc3n1CC(F)(F)F)-c1cc(cc(C(F)F)c1)C[C@H](NC(=O)[C@H](C(C)C)N(C)C(=O)[C@H]1CCN(C(=O)C#CC(C)(C)N3CCC3)C1)C(=O)N1CCC[C@H](N1)C(=O)OCC(C)(C)C2 (atropisomer, axis not shown) [Compound A370] | – | –
< 0.01 | CCn1c(-c2cccnc2[C@H](C)OC)c2c3cc(ccc31)-c1cccc(c1)C[C@H](NC(=O)[C@H](C1CCCC1)N(C)C(=O)[C@@H]1CN(C(=O)C#CC(C)(C)N(C)C)C[C@@H]1C)C(=O)N1CCC[C@H](N1)C(=O)OCC(C)(C)C2 (atropisomer, axis not shown) [Compound A391] | – | –
< 0.01 | CCn1c(-c2cccnc2[C@H](C)OC)c2c3cc(ccc31)-c1cc(cc(C(F)F)c1)C[C@H](NC(=O)[C@H](C(C)C)N(C)C(=O)[C@H]1CCN(C(=O)C#CC(C)(C)N3CCC3)C1)C(=O)N1CCC[C@H](N1)C(=O)OCC(C)(C)C2 (atropisomer, axis not shown) [Compound A466] | – | –
0.1 to 1 | C=CC(=O)N1CC[C@H](C(=O)N(C)[C@H](C(=O)N[C@H]2CC3=CCCN(C3)c3ccc4c(c3)c(c(-c3cccnc3[C@H](C)OC)n4CC)CC(C)(C)COC(=O)[C@@H]3CCCN(N3)C2=O)C(C)C)C1 (atropisomer, axis not shown) [Compound A486] | – | –
< 0.01 | C=CC(=O)N1CC[C@@H](C(=O)N(C)[C@H](C(=O)N[C@H]2Cc3cccc(c3)-c3ccc4c(c3)c(c(-c3cccnc3[C@H](C)OC)n4CC)CC(C)(C)COC(=O)[C@@H]3CCCN(N3)C2=O)C(C)C)C1 (atropisomer, axis not shown) [Compound A488] | – | –
< 0.01 | CO[C@@H](C)c1ncccc1-c1c2c3cc(ccc3n1CC(F)(F)F)-c1csc(n1)C[C@H](NC(=O)[C@H](C(C)C)N(C)C(=O)N1C[C@@H]3OCCN(C(=O)/C=C/CF)[C@@H]3C1)C(=O)N1CCC[C@H](N1)C(=O)OCC(C)(C)C2 (atropisomer, axis not shown) [Compound A571] | – | –
< 0.01 | CO[C@@H](C)c1ncccc1-c1c2c3cc(ccc3n1CC(F)(F)F)-c1csc(n1)C[C@H](NC(=O)[C@H](C(C)C)N(C)C(=O)N1C[C@@H]3OCCN(C(=O)/C=C/C(F)F)[C@@H]3C1)C(=O)N1CCC[C@H](N1)C(=O)OCC(C)(C)C2 (atropisomer, axis not shown) [Compound A572] | – | –
0.01 to 0.1 | CO[C@@H](C)c1ncccc1-c1c2c3cc(ccc3n1CC(F)(F)F)-c1csc(n1)C[C@H](NC(=O)[C@H](C(C)C)N(C)C(=O)N1C[C@@H]3OCCN(C(=O)/C=C/CN(C)C)[C@@H]3C1)C(=O)N1CCC[C@H](N1)C(=O)OCC(C)(C)C2 (atropisomer, axis not shown) [Compound A573] | – | –
< 0.01 | CO[C@@H](C)c1ncccc1-c1c2c3cc(ccc3n1CC(F)(F)F)-c1nc(nn1C)C[C@H](NC(=O)[C@H](C(C)C)N(C)C(=O)C1(F)CCN(C(=O)C#CC(C)(C)N(C)C)CC1)C(=O)N1CCC[C@H](N1)C(=O)OCC(C)(C)C2 (atropisomer, axis not shown) [Compound A577] | – | –
0.01 to 0.1 | CCn1c(-c2cccnc2[C@H](C)OC)c2c3cc(ccc31)N1CCO[C@@H](C[C@H](NC(=O)[C@H](C(C)C)N3CC[C@@]4(CCN(C(=O)C#CC(C)(C)N(C)C)C4)C3=O)C(=O)N3CCC[C@H](N3)C(=O)OCC(C)(C)C2)C1 (atropisomer, axis not shown) [Compound A614] | – | –
< 0.01 | CCn1c(-c2cccnc2[C@H](C)OC)c2c3cc(ccc31)-c1cccc(c1)C[C@H](NC(=O)[C@H](C(C)C)N(C)C(=O)C1(F)CCN(C(=O)C#CC(C)(C)N(C)C)CC1)C(=O)N1CCC[C@H](N1)C(=O)OCC(C)(C)C2 (atropisomer, axis not shown) [Compound A699] | – | –

Second part, the molecule before the results:

SMILES | IC50 [2] [µM] | IC50 [1] [µM] | further results
CCn1c(-c2cccnc2[C@H](C)OC)c2c3cc(ccc31)-c1cccc(c1)C[C@H](NC(=O)[C@H](C(C)C)N(C)C(=O)[C@H]1CCN(C(=O)C#CCN(C)C)C1)C(=O)N1CCC[C@H](N1)C(=O)OCC(C)(C)C2 (atropisomer, axis not shown) [Compound A121] | – | < 0.01 | –
C=CS(=O)(=O)N1CC[C@H](C(=O)N(C)[C@H](C(=O)N[C@H]2Cc3cccc(c3)-c3ccc4c(c3)c(c(-c3cccnc3[C@H](C)OC)n4CC)CC(C)(C)COC(=O)[C@@H]3CCCN(N3)C2=O)C(C)C)C1 (atropisomer, axis not shown) [Compound A124] | – | < 0.01 | –
C=CC(=O)N1CC[C@H](C(=O)N(C)[C@H](C(=O)N[C@H]2Cc3cc(O)cc(c3)-c3ccc4c(c3)c(c(-c3cccnc3[C@H](CC)OC)n4CC)CC(C)(C)COC(=O)[C@@H]3CCCN(N3)C2=O)C(C)C)C1 (atropisomer, axis not shown) [Compound A181] | – | < 0.01 | –
C=CC(=O)N1CC(CN2C(=O)O[C@H](C)[C@H]2C(=O)N[C@H]2Cc3cccc(c3)-c3ccc4c(c3)c(c(-c3cccnc3[C@H](C)OC)n4CC)CC(C)(C)COC(=O)[C@@H]3CCCN(N3)C2=O)C1 (atropisomer, axis not shown) [Compound A460] | > 1 | – | –
C=CC(=O)N1CC[C@H](C(=O)N(C)[C@H](C(=O)N[C@H]2Cc3cccc(c3)-c3ccc4c(c3)c(c(-c3cc(C5CCN(C)CC5)cnc3[C@H](C)OC)n4CC)CC(C)(C)COC(=O)[C@@H]3CCCN(N3)C2=O)C(C)C)C1 (atropisomer, axis not shown) [Compound A515] | – | – | IC50 [3]: < 0.01 µM
C=CC(=O)N1CC[C@H](C(=O)N(C)[C@H](C(=O)N[C@H]2Cc3nc(cs3)-c3ccc4c(c3)c(c(-c3cc(C5=CCN(C)CC5)cnc3[C@H](C)OC)n4CC)CC(C)(C)COC(=O)[C@@H]3CCCN(N3)C2=O)C(C)C)C1 (atropisomer, axis not shown) [Compound A520] | – | – | IC50 [3]: < 0.01 µM
C=CC(=O)Nc1cnc(C(=O)N(C)[C@H](C(=O)N[C@H]2Cc3cccc(c3)-c3ccc4c(c3)c(c(-c3cccnc3[C@H](C)OC)n4CC)CC(C)(C)COC(=O)[C@@H]3CCCN(N3)C2=O)C(C)C)n1C (atropisomer, axis not shown) [Compound A525] | – | < 0.01 | –
CCn1c(-c2cccnc2[C@H](C)OC)c2c3cc(ccc31)-c1cccc(c1)C[C@H](NC(=O)[C@H](C(C)C)N1CC[C@]3(CCN(C(=O)C#C[C@H]4COCCN4C)C3)C1=O)C(=O)N1CCC[C@H](N1)C(=O)OCC(C)(C)C2 (atropisomer, axis not shown) [Compound A592] | – | < 0.01 | –
C=CC(=O)N1CCO[C@H]2CCN(C(=O)N(C)[C@H](C(=O)N[C@H]3Cc4nc(cs4)-c4ccc5c(c4)c(c(-c4cccnc4[C@H](C)OC)n5CC)CC(C)(C)COC(=O)[C@@H]4CCCN(N4)C3=O)C(C)C)C[C@@H]21 (atropisomer, axis not shown) [Compound A609] | – | < 0.01 | –
C=CC(=O)N1CC2(CCN2C(=O)N(C)[C@H](C(=O)N[C@H]2Cc3nc(n(C)n3)-c3ccc4c(c3)c(c(-c3cccnc3[C@H](C)OC)n4CC)CC(C)(C)COC(=O)[C@@H]3CCCN(N3)C2=O)C(C)C)C1 (atropisomer, axis not shown) [Compound A612] | – | – | IC50 [4]: 0.1 to 1 µM
CCn1c(-c2cccnc2[C@H](C)OC)c2c3cc(ccc31)-c1csc(n1)C[C@H](NC(=O)[C@H](C(C)C)N(C)C(=O)N1C[C@H]3CN(C(=O)C#CC(C)(C)N(C)C)CC[C@H]31)C(=O)N1CCC[C@H](N1)C(=O)OCC(C)(C)C2 (atropisomer, axis not shown) [Compound A624] | – | – | IC50 [4]: < 0.01 µM
CCn1c(-c2cccnc2[C@H](C)OC)c2c3cc(ccc31)-c1csc(n1)C[C@H](NC(=O)[C@H](C(C)C)N(C)C(=O)N1C[C@@H]3CN(C(=O)C#CC(C)(C)N(C)C)CC[C@@H]31)C(=O)N1CCC[C@H](N1)C(=O)OCC(C)(C)C2 (atropisomer, axis not shown) [Compound A625] | – | – | IC50 [4]: 0.01 to 0.1 µM
CCn1c(-c2cccnc2[C@H](C)OC)c2c3cc(ccc31)-c1csc(n1)C[C@H](NC(=O)[C@H](C(C)C)N(C)C(=O)N1CCCOC13CN(C(=O)C#CC(C)(C)N(C)C)C3)C(=O)N1CCC[C@H](N1)C(=O)OCC(C)(C)C2 (atropisomer, axis not shown) [Compound A666] | – | – | IC50 [4]: 0.01 to 0.1 µM
C=CC(=O)N1CC2(CCN2C(=O)N(C)[C@H](C(=O)N[C@H]2Cc3cccc(c3)-c3ccc4c(c3)c(c(-c3cccnc3[C@H](C)OC)n4CC)CC(C)(C)COC(=O)[C@@H]3CCCN(N3)C2=O)C(C)C)C1 (atropisomer, axis not shown) [Compound A684] | – | – | IC50 [4]: < 0.01 µM
CCn1c(-c2cccnc2[C@H](C)OC)c2c3cc(ccc31)-c1cccc(c1)C[C@H](NC(=O)[C@H](C(C)C)N(C)C(=O)[C@H]1CCN(C(=O)C#CC(C)(C)N3CCC(F)(F)C3)C1)C(=O)N1CCC[C@H](N1)C(=O)OCC(C)(C)C2 (relative stereo) [Compound A325] | – | 0.1 to 1 | –
C=CC(=O)N1CC[C@H](C(=O)N(C)[C@H](C(=O)N[C@H]2Cc3cc(O)cc(c3)-c3ccc4c(c3)c(c(-c3cc(CN(C)C)cnc3[C@H](C)OC)n4CC)CC(C)(C)COC(=O)[C@@H]3CCCN(N3)C2=O)C(C)C)C1 (single isomer, unassigned) [Compound A537] | – | < 0.01 | –
C=CC(=O)N1CC[C@H](C(=O)N(C)[C@H](C(=O)N[C@H]2Cc3cc(O)cc(c3)-c3ccc4c(c3)c(c(-c3cccnc3)n4[C@H](C)C#N)CC(C)(C)COC(=O)[C@@H]3CCCN(N3)C2=O)C(C)C)C1 [A193] | – | 0.1 to 1 | –
